From patent publication US20210038545A1 (priority 2018, published 2021)

What was measured:
[1] = test system: respiratory bacterial (including pneumococcal) and fungal infections; conditions: Ciarlo et al., 2016; cited from earlier work
S. pneumoniae [2] = conditions: mouse, in vivo
S. pneumoniae [3] = conditions: IAV (H3N2)-infected mice as printed; acetate from day 2 p.i.; 1×10^3 CFUs at 7 dpi; 30 hrs later; FIG. 4B
S. pneumoniae [4] = conditions: mice colonized with IAV microbiota; 30 hrs after challenge; FIG. 4A

Question: Which “modulation of host defenses against respiratory bacterial and fungal infections” value [1] does the source give for `CCC(=O)O` [propionate] here?
Answer: Its value is “failed to modulate”.

Question: With `CC(=O)O` [acetate] as the molecule, how does the “bacterial loads in the lung” value (S. pneumoniae [2]) read?
Answer: The value was “significantly reduced”.

Question: And the “bacterial loads in the spleen” value (S. pneumoniae [2])?
Answer: Its value is “significantly reduced”.

Question: And the “survival rate of double-infected mice” value (S. pneumoniae [2])?
Answer: Its value is “significant enhancement”.

Question: And the “bacterial load in the lung” value (S. pneumoniae [3])?
Answer: Its value is “significant lower”.

Question: And the “bacterial load in the spleen” value (S. pneumoniae [3])?
Answer: Its value is “significant lower”.

Question: What about the “protective effect of acetate in Ffa2−/− mice” value (S. pneumoniae serotype 1; Ffa2−/− mice relative to FFA2-competent mice, FIG. 1B) of the same molecule?
Answer: Its value is “significantly reduced”.

Question: What about the “number of bacteria in the spleen” value (S. pneumoniae serotype 1; acetate 200 mM drinking water for five days before 1×10^6 CFUs i.n., 30 hours after challenge, FIG. 1A lower panel) of the same molecule?
Answer: The value was “lowered”.

Question: What about the “number of bacteria in the lungs” value (S. pneumoniae serotype 1; acetate 200 mM drinking water for five days before 1×10^6 CFUs i.n., 30 hours after challenge, vs vehicle, FIG. 1A upper panel) of the same molecule?
Answer: Its value is “significantly reduced”.

Question: What about the “number of pneumococci in lungs” value (S. pneumoniae [4]) of the same molecule?
Answer: Its value is “lower number”.

Question: What about the “systemic dissemination of pneumococci out of the lungs” value (S. pneumoniae [4]) of the same molecule?
Answer: Its value is “lowered”.
